Measured values taken from the supplement of paper PMC4862054.

Key:
Details in all cases: incubation time: 72 h
[1] = tested on: HCC1937; assay: drug sensitivity score (DSS), CellTiter-Blue viability (DSS (AUC-based score)); higher = stronger viability inhibition; extreme values may be limits of the assay
Description: (§1)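 DSRT with the CellTiter-Blue (resazurin reduction) viability readout, fluorescence 560/590 nm, 72 h incubation. Plates were normalised to DMSO and benzethonium chloride controls. DSS is computed from the area under the fitted dose-response curve (5 or 9 concentrations).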

[2] = tested on: CAL-120; assay: as above
Description: as §1

[3] = tested on: CAL-85-1; assay: as above
Description: as §1

[4] = tested on: MDA-MB-436; assay: as above
Description: as §1

[5] = tested on: MFM-223; assay: as above
Description: as §1

[6] = tested on: CAL-148; assay: as above
Description: as §1

[7] = tested on: MDA-MB-468; assay: normalised response (% of control), CellTiter-Glo; higher = more viable cells (100 = DMSO, 0 = benzethonium chloride kill control)
How it was run: (§2)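 The table gives the normalised signal for a single concentration in each entry. Breast cancer cell lines were seeded (20 µl suspension) into 384-well plates holding compound at 5 concentrations in 10-fold steps over a compound-specific 10,000-fold range and incubated 72 h, then read for CellTox Green fluorescence (485/520 nm) and CellTiter-Glo luminescence. Normalisation on each plate used 0.1 % DMSO (100) and a positive kill control (0).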

[8] = tested on: SK-BR-3; assay: as above
How it was run: as §2

[9] = tested on: MDA-MB-436; assay: as above
How it was run: as §2

[10] = tested on: MFM-223; assay: as above
How it was run: as §2

[11] = tested on: MCF-10A; assay: normalised response (% of control), CellTox Green; higher = less cell death (100 = DMSO, 0 = benzethonium chloride kill control)
How it was run: as §2

[12] = tested on: HCC1143; assay: as above
How it was run: as §2

[13] = tested on: MDA-MB-453; assay: as above
How it was run: as §2

[14] = tested on: DU-4475; assay: as above
How it was run: as §2

[15] = tested on: HCC1937; assay: as above
How it was run: as §2

[16] = tested on: HCC1599; assay: as above
How it was run: as §2

[17] = tested on: BT-474; assay: as above
How it was run: as §2

[18] = tested on: BT-549; assay: as above
How it was run: as §2

[19] = tested on: Hs578T; assay: as above
How it was run: as §2

[20] = tested on: MDA-MB-468; assay: as above
How it was run: as §2

[21] = tested on: MDA-MB-231; assay: as above
How it was run: as §2

[22] = tested on: CAL-120; assay: as above
How it was run: as §2

[23] = tested on: CAL-85-1; assay: as above
How it was run: as §2

[24] = tested on: MDA-MB-436; assay: as above
How it was run: as §2

[25] = tested on: MFM-223; assay: as above
How it was run: as §2

[26] = tested on: CAL-148; assay: as above
How it was run: as §2

[27] = tested on: HDQ-P1; assay: as above
How it was run: as §2

[28] = tested on: CAL-51; assay: as above
How it was run: as §2

Structure (SMILES)	drug sensitivity score [1]	drug sensitivity score [2]	drug sensitivity score [3]	drug sensitivity score [4]	drug sensitivity score [5]	drug sensitivity score [6]	normalised response [7] [%]	normalised response [8] [%]	normalised response [9] [%]	normalised response [10] [%]	normalised response [11] [%]	normalised response [12] [%]	normalised response [13] [%]	normalised response [14] [%]	normalised response [15] [%]	normalised response [16] [%]	normalised response [17] [%]	normalised response [18] [%]	normalised response [19] [%]	normalised response [20] [%]	normalised response [21] [%]	normalised response [22] [%]	normalised response [23] [%]	normalised response [24] [%]	normalised response [25] [%]	normalised response [26] [%]	normalised response [27] [%]	normalised response [28] [%]
Cc1c(N)nc([C@H](CC(N)=O)NC[C@H](N)C(N)=O)nc1C(=O)N[C@H](C(=O)N[C@H](C)[C@@H](O)[C@H](C)C(=O)N[C@H](C(=O)NCCc1nc(-c2nc(C(=O)NCCC[S+](C)C)cs2)cs1)[C@@H](C)O)[C@@H](OC1OC(CO)C(O)C(O)C1OC1OC(CO)C(O)C(OC(N)=O)C1O)c1cnc[nH]1 (stereo partly specified) [Bleomycin]	9.75	3.15	0	4.58	0	0	–	–	–	–	–	–	–	–	–	–	–	–	–	–	–	–	–	–	–	–	–	–
Cc1cc2c(F)c(Oc3ncnn4cc(OC[C@@H](C)O)c(C)c34)ccc2[nH]1 [Brivanib]	0	0	0	0	0	0	–	–	–	–	–	–	–	–	–	–	–	–	–	–	–	–	–	–	–	–	–	–
CCCCCOC(=O)Nc1nc(=O)n([C@@H]2O[C@H](C)[C@@H](O)[C@H]2O)cc1F [Capecitabine]	0	0	0	0	0	0	–	–	–	–	–	–	–	–	–	–	–	–	–	–	–	–	–	–	–	–	–	–
CC(C)C[C@H](NC(=O)[C@H](CCc1ccccc1)NC(=O)CN1CCOCC1)C(=O)N[C@@H](Cc1ccccc1)C(=O)N[C@@H](CC(C)C)C(=O)[C@@]1(C)CO1 [Carfilzomib]	27	23.9	22.2	20.5	26.4	18.8	–	–	–	–	–	–	–	–	–	–	–	–	–	–	–	–	–	–	–	–	–	–
Nc1nc(Cl)nc2c1ncn2[C@@H]1O[C@H](CO)[C@@H](O)[C@@H]1F [Clofarabine]	15.5	11.6	10.1	11.8	0	11.3	–	–	–	–	–	–	–	–	–	–	–	–	–	–	–	–	–	–	–	–	–	–
CCN(CC)CCOc1ccc(C(=C(Cl)c2ccccc2)c2ccccc2)cc1 [Clomifene]	1.23	3.83	1.08	2.07	2.02	0	–	–	–	–	–	–	–	–	–	–	–	–	–	–	–	–	–	–	–	–	–	–
C[C@@H]1C[C@H]2[C@@H]3CCC4=CC(=O)C=C[C@]4(C)[C@@]3(F)[C@@H](O)C[C@]2(C)[C@@]1(O)C(=O)CO [Dexamethasone]	0	0	0	0	0	0	–	–	–	–	–	–	–	–	–	–	–	–	–	–	–	–	–	–	–	–	–	–
CC(C)C(=O)Nc1ccc([N+](=O)[O-])c(C(F)(F)F)c1 [Flutamide]	0	0	0	0	0	0	–	–	–	–	–	–	–	–	–	–	–	–	–	–	–	–	–	–	–	–	–	–
CC(C)C(=O)Nc1ccc([N+](=O)[O-])c(C(F)(F)F)c1 [Flutamide] (1000 nM)	–	–	–	–	–	–	96.9	93.9	98.1	99.8	97.9	99.2	102	99.8	118	94.6	99.5	115	108	144	98.5	102	101	99.7	99	104	114	98.4
COc1cc2c(Oc3ccc(NC(=O)C4(C(=O)Nc5ccc(F)cc5)CC4)cc3F)ccnc2cc1OCCCN1CCOCC1 [Foretinib]	0	1.14	0	3.35	9.7	2.11	–	–	–	–	–	–	–	–	–	–	–	–	–	–	–	–	–	–	–	–	–	–
COc1cc2c(Oc3ccc(NC(=O)C4(C(=O)Nc5ccc(F)cc5)CC4)cc3F)ccnc2cc1OCCCN1CCOCC1 [Foretinib] (100 nM)	–	–	–	–	–	–	105	107	110	75.7	111	106	107	101	111	99.2	100	113	83.7	97.5	65.1	101	100	102	101	102	109	94.2
NC(=O)NO [Hydroxyurea]	2.94	0	0	0	0	0	–	–	–	–	–	–	–	–	–	–	–	–	–	–	–	–	–	–	–	–	–	–
O=NN(CCCl)C(=O)NC1CCCCC1 [Lomustine]	0	0	0	0	0	0	–	–	–	–	–	–	–	–	–	–	–	–	–	–	–	–	–	–	–	–	–	–
O=NN(CCCl)C(=O)NC1CCCCC1 [Lomustine] (1000 nM)	–	–	–	–	–	–	104	94.6	104	98	96.9	108	103	99.4	120	93.7	98.1	104	98.3	128	90	103	98.6	84.8	97	106	55.3	112
O=C(O)CC[C@H]1CC[C@@](c2cc(F)ccc2F)(S(=O)(=O)c2ccc(Cl)cc2)CC1 [MK-0752]	0	0	0	0	0	0	–	–	–	–	–	–	–	–	–	–	–	–	–	–	–	–	–	–	–	–	–	–
O=C(O)CC[C@H]1CC[C@@](c2cc(F)ccc2F)(S(=O)(=O)c2ccc(Cl)cc2)CC1 [MK-0752] (100 nM)	–	–	–	–	–	–	107	109	104	109	114	105	111	107	96	111	102	131	97.3	165	122	101	97	110	94	59	109	116
NC1(c2ccc(-c3nc4ccn5c(=O)[nH]nc5c4cc3-c3ccccc3)cc2)CCC1 [MK-2206]	0	0	0	2.37	4.16	1.65	–	–	–	–	–	–	–	–	–	–	–	–	–	–	–	–	–	–	–	–	–	–
NC1(c2ccc(-c3nc4ccn5c(=O)[nH]nc5c4cc3-c3ccccc3)cc2)CCC1 [MK-2206] (100 nM)	–	–	–	–	–	–	94.6	83.5	108	98.5	105	97.8	105	104	63.5	108	103	133	116	116	110	101	102	107	92	109	108	117
NC(=O)c1cccc2cn(-c3ccc([C@@H]4CCCNC4)cc3)nc12 [MK-4827]	8.54	0	0	0	0	2.86	–	–	–	–	–	–	–	–	–	–	–	–	–	–	–	–	–	–	–	–	–	–
N[C@@H](Cc1ccc(N(CCCl)CCCl)cc1)C(=O)O [Melphalan]	9.6	0	0	0	0	0	–	–	–	–	–	–	–	–	–	–	–	–	–	–	–	–	–	–	–	–	–	–
C[C@]12C=CC(=O)C=C1CC[C@@H]1[C@@H]2C(=O)C[C@@]2(C)[C@H]1CC[C@]2(O)C(=O)CO [Prednisone] (1000 nM)	–	–	–	–	–	–	103	103	104	101	98.8	105	100	101	113	97.7	103	120	105	83.2	116	102	103	101	84.2	73	94.4	112
CN1CCN(c2nc(C3=C(c4c[nH]c5ccccc45)C(=O)NC3=O)c3ccccc3n2)CC1 [Sotrastaurin] (1000 nM)	–	–	–	–	–	–	91.6	90.9	102	91.6	108	58.9	105	99.8	108	92.9	98.8	111	105	215	108	102	106	102	102	58.2	66.9	105
Cn1nnc2c(C(N)=O)ncn2c1=O [Temozolomide] (1000 nM)	–	–	–	–	–	–	91.8	92	104	94.8	89.5	50.4	105	100	96.6	94.6	96.5	108	94.3	106	109	103	108	80.5	52	95.8	100	87.6
